According to patent US20240174714A1, “TREATMENT OF SKIN DISORDERS” (priority 2021, published 2024):
In brackets after ≈: the same amount, converted by molar mass. Square brackets hold non-standard residues; d marks the D form. Peptide text beside a SMILES is read from it. * marks the point of attachment. NH(1-CH2NMe2-cBu) = CN(C)CC1(N*)CCC1; Benzoyl(4-F) = O=C(c1ccc(F)cc1)*; hCha = N[C@@H](CCC1CCCCC1)C(=O)O; Aib = CC(C)(N)C(=O)O; βAla = NCCC(=O)O

What was measured:
[1] = test system: Leishmania mexicana (MNYC/BZ/62/m379); test: In vivo model of cutaneous leishmaniasis, rump back model in C67BLC/6 mice; conditions: 20 μl 0.1% w/v in DMSO topically bid for 14 days
From the text: Mice. C67BLC/6 female mice were purchased from Envigo (Harlan laboratories) Indianapolis, IN, USA. 129SVE female mice were purchased from Taconic Farms, Cambridge City, IN, USA. All experimental mice were maintained at an OSU-ULAR facility in compliance with OSUIACUC.
Parasites and infection. L. mexicana (MNYC/BZ/62/m379) parasites were obtained and maintained as described previously. Promastigotes were maintained, passaged, and subsequently injected into experimental mice (5×10^6 parasites) subcutaneously into their shaven rumps. C67BLC/6 mice were infected with L. mexicana parasites for 6 weeks after which they developed lesions on their back rumps. Mice with similar lesion sizes were selected and randomized into control and treatment groups. From the beginning of treatment animals were housed individually.
Treatment. Treatment group received 20 μl of ZHAW6027 0.1% weight by volume in DMSO, twice a day (bid) for 14 days. […]
Topical drug treatments and lesion measurements. Lesion sizes were measured by using a small animal caliper twice weekly over the 14-day treatment duration and the area of the lesion was calculated by L×W, where L is the length and W is the width. […]
Quantitation of parasitic load. After 2 weeks of treatment animals were sacrificed, and the parasite load in the lesions was quantified. […] Viability of parasites was determined at 10 days of parasite culture. […]

[2] = after 48 hours; donor 0.1% 6027 in DMSO; acceptor PBS + 2% Volpo; % of total 6027
Protocol: The ears were washed with tap water and the hairs were removed with an electric clipper. The skin was separated from the underlying cartilage from the backside of the ear by using a scalpel. After washing the skin again, it was stored in aluminium foil at −20° C. for no longer than one month.
After thawing the frozen skin, it was cut into adequate circles and the skin thickness was measured with a calliper. The skin was mounted into the FDC, tightly sealed with Teflon band and fixed in special designed holder. Then the acceptor compartment was equipped with a magnetic stirrer, filled with placebo formulation and equilibrated for one hour. To check the barrier integrity and to be sure that there are no invisible damages from skin preparation TEWL (transepidermal water loss) was measured. The FDCs were then placed in the water bath +32° C. ±1 over a magnetic stirrer (500 rpm). Due to differences of each FDC, the skin application area for drug permeation was measured and calculated for each cell in advance. Consequently, the amount of 6027 for the donor compartment had to be adjusted for the infinite-dose experiment to 284.1 μL/cm^2.
At predefined time points 50 μL samples were taken from the acceptor compartment. The missing volume was replaced with the corresponding placebo formulation.
At the end of the permeation experiment and before reassembling the FDCs, the donor compartments were washed out with 10 mL ACN:H2O (55:45).
To extract 6027 from the skin, the frozen skin was cut into small pieces and grinded by a cryogenic grinder Freezer/Mill® from Spex SamplePrep (Metuchen, USA). The setting was 10 min precooling and a rate of 10 CPS for 4 cycles with 2 minutes. The resulting powder was resuspended in 2 mL ACN:H2O (55:45). After being vortex, the mixtures were ultrasonicated with Branson Sonifier 250 (model: 101-cx03-197) from Branson Ultrasonics Corporation (Danbury, USA). The setting for ultrasonification was output control 2 and duty cycle 30% for 60 seconds. […]
The concentrations of 6027 were determined by using HPLC-MS from Agilent Technologies. […]

[3] = physchem; conditions: water
[4] = test system: Staphylococcus epidermidis ATCC 12228; test: MIC broth microdilution, method 1; assay type: cell-based; conditions: 6027 acetate
[5] = test system: Staphylococcus aureus NARSA NRS119; test: microbe, parasite or virus in culture; assay type: cell-based; conditions: NARSA NRS119
[6] = test system: Staphylococcus aureus ECL 2963646; test: microbe, parasite or virus in culture; assay type: cell-based
[7] = test system: Staphylococcus aureus ATCC BAA-1556, USA300 MRSA; test: microbe, parasite or virus in culture; assay type: cell-based; conditions: ATCC BAA-1556
Protocol: Pre-formulated compound solution was diluted in 100% DMSO to prepare a 1.6 mg/mL working stock solution. […] The concentration range was 0.032 to 32 μg/mL.

[8] = Cytotoxicity assay (Alamar Blue) on L6-cells; assay type: cell-based, rat; conditions: rat
Protocol: Tests were done in triplicate.
The plates were incubated for additional 2 h.

[9] = test system: Staphylococcus aureus ATCC BAA-1556; test: microbe, parasite or virus in culture; assay type: cell-based; conditions: ATCC BAA-1556
[10] = test system: Staphylococcus aureus NARSA NRS127; test: microbe, parasite or virus in culture; assay type: cell-based; conditions: NARSA NRS127
[11] = test system: Staphylococcus aureus ATCC 29213; test: MIC broth microdilution, method 1; assay type: cell-based; conditions: CAMHB II, 1 day at 36° C., 6027 acetate

With `CC(C)C[C@H](NC(=O)[C@H](CCC1CCCCC1)NC(=O)[C@@H]1CCCN1C(=O)c1ccc(F)cc1)C(=O)NC(C)(C)C(=O)N[C@@H](CC(C)C)C(=O)N[C@@H](CC(C)C)C(=O)NC(C)(C)C(=O)NC(C)(C)C(=O)NCCC(=O)NC1(CN(C)C)CCC1` [Compound 6027, (2S)-2-[(2S)-4-cyclohexyl-2-{[(2S)-1-(4-fluorobenzoyl)pyrrolidin-2-yl]formamido}butanamido]-N-(1-{[(1S)-1-{[(1S)-1-({1-[(1-{[2-({1-[(dimethylamino)methyl]cyclobutyl}carbamoyl)ethyl]carbamoyl}-1-methylethyl)carbamoyl]-1-methylethyl}carbamoyl)-3-methylbutyl]carbamoyl}-3-methylbutyl]carbamoyl}-1-methylethyl)-4-methylpentanamide] ({Benzoyl(4-F)}-P[hCha]L[Aib]LL[Aib][Aib][βAla]-{NH(1-CH2NMe2-cBu)}) the “reduction of parasite loads in lesions compared to the control” value ([1]; limiting dilution assay, FIG. 2) was “about 3 orders of magnitude”, the “volume of the induced CL lesions over time” value ([1]; vs vehicle (DMSO), where lesions increased, FIG. 1) was “gradually reduced” and the “Acceptor (%)” value [2] was 0.2%. The “Donor (%)” value [2] was 79%, the “Skin extraction (%) (skin penetration)” value [2] was 16% and the solubility [3] was 22 µg/mL (≈ 18.6 µM). The “MIC of 6027” value [4] was 2 µg/mL, the “MIC of 6027” value [5] was 2 µg/mL and the “MIC of 6027” value [6] was 2 µg/mL. The “MIC” value [7] was 1 µg/mL (≈ 0.847 µM), the IC50 at 68 h [8] was 1.34 µM and the “MIC of 6027” value [9] was 2 µg/mL. The “MIC of 6027” value [10] was 2 µg/mL and the “MIC of 6027” value [11] was 1 µg/mL.
